From the NIST ThermoML archive (doi:10.1016/j.jct.2011.11.005)
Where “and” joins values, the source holds several entries; their conditions need not be identical. Equal entries are not always repeated.

Legend:
[1] = activity coefficient (dimensionless); of the first substance listed, at infinite dilution; xn = mol fraction of the nth substance listed; settings: 101.3 kPa, Liquid, x1 = 0
[2] = 101.33 kPa, Liquid, Vibrating tube method

COCCOC [1,2-dimethoxyethane] + CC(=O)[O-].CCn1cc[n+](C)c1
[1], Open tubular Wall-Coated Column Chromatography
Settings | activity coefficient
313 K | 3.56
333 K | 3.88
353 K | 4.11
373 K | 4.51
393 K | 4.81

CCC(C)(C)O [2-methylbutan-2-ol] + CC(=O)[O-].CCn1cc[n+](C)c1
[1], Open tubular Wall-Coated Column Chromatography
Settings | activity coefficient
353 K | 0.29
373 K | 0.35
393 K | 0.42
413 K | 0.49

CC(=O)[O-].CCn1cc[n+](C)c1 [1-ethyl-3-methylimidazolium acetate]
[2]
Settings | mass density [kg/m3]
293.15 K | 1100.87
298.15 K | 1097.83
303.15 K | 1094.77
308.15 K | 1091.71
313.15 K | 1088.65
318.15 K | 1085.61
323.15 K | 1082.57
328.15 K | 1079.55
333.15 K | 1076.54
338.15 K | 1073.54
343.15 K | 1070.55
348.15 K | 1067.58
353.15 K | 1064.61
358.15 K | 1061.65

C1CCCCC1 [cyclohexane] + CC(=O)[O-].CCn1cc[n+](C)c1
activity coefficient, [1]
Settings | 313 K | 333 K | 353 K | 373 K | 383 K | 393 K | 413 K
Chromatography | 36.2 and 35.5 | 30.9 and 31.6 | 27.3 and 29.1 | 27.4 and 29.3 | 26.9 and 25.6 | 26.5 and 28.9 | 24.8 and 24.3
open tubular wall-coated column chromatography | 31.8 | 31.5 | 32.8 | – | – | 30.3 | –

C=CCCCC [hex-1-ene] + CC(=O)[O-].CCn1cc[n+](C)c1
activity coefficient, [1]
Settings | 313 K | 333 K | 353 K | 373 K | 393 K | 413 K
Chromatography | 37.8 and 39 | 34.7 and 35.5 | 31.3 and 34.8 | 31 and 33.4 | 30.6 and 30.1 | 25 and 27
open tubular wall-coated column chromatography | 36 | 35.1 | – | – | – | –

CCCO [propan-1-ol] + CC(=O)[O-].CCn1cc[n+](C)c1
[1], Open tubular Wall-Coated Column Chromatography
Settings | activity coefficient
313 K | 0.06
333 K | 0.07
353 K | 0.09
373 K | 0.1
393 K | 0.11
413 K | 0.13

C1COCCO1 [1,4-dioxane] + CC(=O)[O-].CCn1cc[n+](C)c1
activity coefficient, [1]
Settings | 333 K | 353 K | 373 K | 393 K | 403 K | 413 K
Chromatography | – | – | 2.56 and 2.43 | 2.63 and 2.32 | 2.75 and 2.44 | 2.77 and 2.46
open tubular wall-coated column chromatography | 2.29 | 2.28 | 2.39 | 2.52 | 2.67 | 2.58

CCCCCC [hexane] + CC(=O)[O-].CCn1cc[n+](C)c1
activity coefficient, [1]
Settings | 313 K | 333 K | 353 K | 373 K | 393 K | 413 K
Chromatography | 86.4 and 90.5 | 82.4 and 80.7 | 65.9 and 71.3 | 66.1 and 72.7 | 58.8 and 55.3 | 91.2 and 66.5
open tubular wall-coated column chromatography | 86.5 | 80 | 70.6 | – | – | –

CCOC(C)=O [ethyl acetate] + CC(=O)[O-].CCn1cc[n+](C)c1
activity coefficient, [1]
Settings | 313 K | 333 K | 353 K | 373 K | 393 K | 403 K | 413 K
Chromatography | – | 5.41 and 4.67 | 5.48 and 4.72 | 5.24 and 4.67 | 5.29 and 4.76 | 5.47 and 5.05 | 5.44 and 5.11
open tubular wall-coated column chromatography | 4.41 | 4.77 | 5.24 | 5.62 | 5.35 | 5.32 | –

CC(C)(C)O [2-methylpropan-2-ol] + CC(=O)[O-].CCn1cc[n+](C)c1
[1], Open tubular Wall-Coated Column Chromatography
Settings | activity coefficient
313 K | 0.16
333 K | 0.18
353 K | 0.22
373 K | 0.27
393 K | 0.3
413 K | 0.37

c1ccccc1 [benzene] + CC(=O)[O-].CCn1cc[n+](C)c1
activity coefficient, [1]
Settings | 313 K | 333 K | 353 K | 373 K | 383 K | 393 K | 403 K | 413 K
Chromatography | – | – | 3.41 and 3.39 | 3.45 and 3.31 | 3.49 and 3.62 | 3.52 and 3.45 | 4.15 and 3.67 | 4.1 and 4.11
open tubular wall-coated column chromatography | 2.8 | 3.06 | 3.43 | 3.44 | 3.49 | 3.68 | 3.91 | 4.28

CC#N [acetonitrile] + CC(=O)[O-].CCn1cc[n+](C)c1
activity coefficient, [1]
Settings | 333 K | 353 K | 373 K | 383 K | 393 K | 403 K
Chromatography | – | – | 0.82 | 0.85 and 0.88 | 0.87 | –
open tubular wall-coated column chromatography | 0.76 | 0.77 | 0.86 | 0.91 | 0.89 | 1.21

C[N+](=O)[O-] [nitromethane] + CC(=O)[O-].CCn1cc[n+](C)c1
[1], Open tubular Wall-Coated Column Chromatography
Settings | activity coefficient
353 K | 0.44
373 K | 0.46
393 K | 0.46

C1CCOC1 [tetrahydrofuran] + CC(=O)[O-].CCn1cc[n+](C)c1
activity coefficient, [1]
Settings | 313 K | 333 K | 353 K | 373 K | 383 K | 393 K | 403 K | 413 K
Chromatography | – | 3.91 and 3.36 | 3.92 and 3.37 | 3.68 and 3.5 | – | 3.88 and 3.35 | 4.02 and 3.55 | 4.13 and 3.9
open tubular wall-coated column chromatography | 3.22 | 3.49 | 3.63 | 3.67 | 3.94 | 4.02 | 4 | –

CCCCCCC [heptane] + CC(=O)[O-].CCn1cc[n+](C)c1
[1], Open tubular Wall-Coated Column Chromatography
Settings | activity coefficient
313 K | 121
333 K | 146
353 K | 157
373 K | 173

Cc1ccccc1 [toluene] + CC(=O)[O-].CCn1cc[n+](C)c1
activity coefficient, [1]
Settings | 313 K | 333 K | 353 K | 363 K | 373 K | 383 K | 393 K | 403 K | 413 K
Chromatography | – | – | – | 6.07 and 6.21 | 6.08 and 5.92 | 6.12 and 6.03 | 6.23 and 5.87 | 6.28 and 6.04 | 7.11 and 6.37
open tubular wall-coated column chromatography | 5.01 | 5.41 | 5.76 | 5.81 | 5.88 | 6.03 | 6.13 | 6.47 | 6.55

CC(C)O [propan-2-ol] + CC(=O)[O-].CCn1cc[n+](C)c1
[1], Open tubular Wall-Coated Column Chromatography
Settings | activity coefficient
313 K | 0.08
333 K | 0.11
353 K | 0.13
373 K | 0.15
393 K | 0.16
413 K | 0.19
